Where two headings read alike, the source gives them in different places. Each block holds one molecule with its values, some of them ahead of it.
Test system: PMA-differentiated THP-1 cells
Assay: IL-1β production in PMA-differentiated THP-1 cells stimulated with gramicidin (hTHP-1 assay containing 2% fetal bovine serum; Procedures 1 and 2)
Format: cell-based, human
Settings: 2% fetal bovine serum
Description: The following protocol is suitable for testing the activity of the compounds disclosed herein. Procedure 1: IL-1β Production in PMA-Differentiated THP-1 Cells Stimulated with Gramicidin.
THP-1 cells were purchased from the American Type Culture Collection and sub-cultured according to instructions from the supplier. Cells were cultured in complete RPMI 1640 (containing 10% heat inactivated FBS, penicillin (100 units/ml) and streptomycin (100 μg/ml)), and maintained in log phase prior to experimental setup. Prior to the experiment, compounds were dissolved in dimethyl sulfoxide (DMSO) to generate a 30 mM stock. The compound stock was first pre-diluted in DMSO to 3, 0.34, 0.042 and 0.0083 mM intermediate concentrations and subsequently spotted using Echo550 liquid handler into an empty 384-well assay plate to achieve desired final concentration (e.g. 100, 33, 11, 3.7, 1.2, 0.41, 0.14, 0.046, 0.015, 0.0051, 0.0017 μM). DMSO was backfilled in the plate to achieve a final DMSO assay concentration of 0.37%. The plate was then sealed and stored at room temperature until required.
THP-1 cells were treated with PMA (Phorbol 12-myristate 13-acetate) (20 ng/ml) for 16-18 hours. On the day of the experiment the media was removed and adherent cells were detached with trypsin for 5 minutes. Cells were then harvested, washed with complete RPMI 1640, spun down, and resuspended in RPMI 1640 (containing 2% heat inactivated FBS, penicillin (100 units/ml) and streptomycin (100 μg/ml). The cells were plated in the 384-well assay plate containing the spotted compounds at a density of 50,000 cells/well (final assay volume 50 μl). Cells were incubated with compounds for 1 hour and then stimulated with gramicidin (5 μM) (Enzo) for 2 hours. Plates were then centrifuged at 340 g for 5 min. Cell free supernatant (40 μL) was collected using a 96—CHannel PlateMaster (Gilson) and the production of IL-1β was evaluated by HTRF (cisbio). The plates were incubated for 18 h at 4° C. and read using the preset HTRF program (donor emission at 620 nm, acceptor emission at 668 nm) of the SpectraMax i3x spectrophotometer (Molecular Devices, software SoftMax 6). A vehicle only control and a dose titration of CRID3 (100-0.0017 μM) were run concurrently with each experiment.
Procedure 2: IL-1β Production in PMA-Differentiated THP-1 Cells Stimulated with Gramicidin.
THP-1 cells were purchased from the American Type Culture Collection and sub-cultured according to instructions from the supplier. Prior to experiments, cells were cultured in complete RPMI 1640 (containing 10% heat inactivated FBS, penicillin (100 units/ml) and streptomycin (100 μg/ml)), and maintained in log phase prior to experimental setup. Prior to the experiment THP-1 were treated with PMA (Phorbol 12-myristate 13-acetate) (20 ng/ml) for 16-18 hours. Compounds were dissolved in dimethyl sulfoxide (DMSO) to generate a 30mM stock. On the day of the experiment the media was removed and adherent cells were detached with trypsin for 5 minutes. Cells were then harvested, washed with complete RPMI 1640, spun down, resuspended in RPMI 1640 (containing 2% heat inactivated FBS, penicillin (100 units/ml) and streptomycin (100 μg/ml). The cells were plated in a 384-well plate at a density of 50,000 cells/well (final assay volume […]). Compounds were first dissolved in assay medium to obtain a 5× top concentration of 500 μM. 10 step dilutions (1:3) were then undertaken in assay medium containing 1.67% DMSO. 5× compound solutions were added to the culture medium to achieve desired final concentration (e.g. 100, 33, 11, 3.7, 1.2, 0.41, 0.14, 0.046, 0.015, 0.0051, 0.0017 μM). Final DMSO concentration was at 0.37%. Cells were incubated with compounds for 1 hour and then stimulated with gramicidin (5 μM) (Enzo) for 2 hours. Plates were then centrifuged at 340 g for 5 min. Cell free supernatant (40 μL) was collected using a 96—CHannel PlateMaster (Gilson) and the production of IL-1β was evaluated by HTRF (cisbio). […]

[1] = Table B2, class symbols, read-out: hTHP-1 IC50
[2] = Homo sapiens, THP-1, Table B3, hTHP-1 assay, class symbols, read-out: IC50
[3] = Homo sapiens, THP-1, Table B2, class symbols, read-out: hTHP-1 IC50
[4] = Table B1, class symbols, read-out: Average IC50 of compounds in hTHP-1 assay: hTHP-1 IC50

IC50 [1]: 1 to 5 µM
SMILES: CC(C)(O)c1cc(S(N)(=O)=NC(=O)Nc2c3c(nc4c2CCC4(C)C)CCC3)nn1-c1ccc(F)cc1 (single isomer, unassigned) [Compound 705b, (R) or (S)-N′-((3,3-dimethyl-1,2,3,5,6,7-hexahydrodicyclopenta [b,e]pyridin-8-yl)carbamoyl)-1-(4-fluorophenyl)-5-(2-hydroxypropan-2-yl)-1H-pyrazole-3-sulfonimidamide]

IC50 (Table B1, numeric bounds, read-out: Average IC50 of compounds in hTHP-1 assay: hTHP-1 IC50): > 30 µM
SMILES: CCc1cc(NC(=O)N=S(N)(=O)c2cnc(C(C)(C)O)s2)c2c(n1)CCC2 (single isomer, unassigned) [Compound 137b, (S) or (R)-N′-((2-ethyl-6,7-dihydro-5H-cyclopenta[b]pyridin-4-yl)carbamoyl)-2-(2-hydroxypropan-2-yl)thiazole-5-sulfonimidamide]

IC50 (Table B3, hTHP-1 assay, class symbols, read-out: IC50): 0.04 to 0.2 µM
SMILES: CC(C)(O)c1csc(S(N)(=O)=NC(=O)Nc2c3c(nc(C(F)(F)F)c2C2CC2)CCC3)c1 (single isomer, unassigned) [Example 646, (R) or (S)-N′-((3-((3-2-(trifluoromethyl)-6,7-dihydro-5H-cyclopenta[b]pyridin-4-yl)carbamoyl)-4-(2-hydroxypropan-2-yl)thiophene-2-sulfonimidamide]

IC50 [2]: 1 to 5 µM
SMILES: CC(C)n1nc(S(N)(=O)=NC(=O)Nc2c3c(nc4c2CC[C@H]4C)CCC3)cc1CO (stereo partly drawn) [Example 596, 5-(Hydroxymethyl)-1-isopropyl-N-(((R)-3-methyl-1,2,3,5,6,7-hexahydrodicyclopenta[b,e]pyridin-8-yl)carbamoyl)-1H-pyrazole-3-sulfonimidamide]

IC50 [3]: 1 to 5 µM
SMILES: CC(C)n1cc(Cl)c(S(N)(=O)=NC(=O)Nc2c3c(nc4c2CCC4)CCC3)n1 (single isomer, unassigned) [Compound 694b, (R) or (S)-4-Chloro-N′-((1,2,3,5,6,7-hexahydrodicyclopenta [b,e]pyridin-8-yl)carbamoyl)-1-isopropyl-1H-pyrazole-3-sulfonimidamide]

IC50 [3]: 1 to 5 µM
SMILES: CC(C)(O)c1cc(F)c(S(N)(=O)=NC(=O)Nc2cc(CC(F)(F)F)nc3c2CCC3)s1 (stereo not drawn) [Compound 602, 3-Fluoro-5-(2-hydroxypropan-2-yl)-N′-((2-(2,2,2-trifluoroethyl)-6,7-dihydro-5H-cyclopenta[b]pyridin-4-yl)carbamoyl)thiophene-2-sulfonimidamide]

IC50 [4]: 0.2 to 1 µM
SMILES: CC1CCc2c1nc1c(c2NC(=O)N=S(N)(=O)c2sc(C(C)(C)O)nc2CO)CCC1 (single isomer, unassigned) [Compound 168ba, (R,S) or (R,R)-4-(hydroxymethyl)-2-(2-hydroxypropan-2-yl)-N′-((3-methyl-1,2,3,5,6,7-hexahydrodicyclo-penta[b,e]pyridin-8-yl)carbamoyl)thiazole-5-sulfonimidamide]

IC50 [2]: 1 to 5 µM
SMILES: CCc1c(C(F)(F)F)nc2c(c1NC(=O)N=S(N)(=O)c1nn(C(F)F)cc1F)CCC2 (stereo not drawn) [Example 572, 1-(Difluoromethyl)-N′-((3-ethyl-2-(trifluoromethyl)-6,7-dihydro-5H-cyclopenta[b]pyridin-4-yl)calbamoyl)-4-fluoro-1H-pyrazole-3-sulfonimidamide]

IC50 [3]: 1 to 5 µM
SMILES: CC(C)(O)c1csc(S(N)(=O)=NC(=O)Nc2cc(CC(F)(F)F)nc3c2CCC3)c1 (single isomer, unassigned) [Compound 607b, (R) or (S)-4-(2-Hydroxypropan-2-yl)-N′-((2-(2,2,2-trifluoroethyl)-6,7-dihydro-5H-cyclopenta[b]pyridin-4-yl)carbamoyl) thiophene-2-sulfonimidamide]

IC50 (Homo sapiens, THP-1, Table B2, numeric bounds, read-out: hTHP-1 IC50): > 30 µM
SMILES: CC(C)(O)c1ccnc(S(N)(=O)=NC(=O)Nc2c3c(nc4c2CCC4(C)C)CCC3)c1 (single isomer, unassigned) [Compound 620a, (S) or (R)-N′-((3,3-dimethyl-1,2,3,5,6,7-hexahydrodicyclopenta [b,e]pyridin-8-yl)carbamoyl)-4-(2-hydroxypropan-2-yl)pyridine-2-sulfonimidamide]

IC50 [3]: 5 to 30 µM
SMILES: CC(C)(O)c1ccc(S(N)(=O)=NC(=O)Nc2c3c(nc4c2CCC4(C)C)CCC3)cn1 (stereo not drawn) [Compound 673, N′-((3,3-dimethyl-1,2,3,5,6,7-hexahydrodicyclopenta[b,e]pyridin-8-yl)carbamoyl)-6-(2-hydroxypropan-2-yl)pyridine-3-sulfonimidamide]

IC50 (Homo sapiens, THP-1, Table B1, class symbols, read-out: Average IC50 of compounds in hTHP-1 assay: hTHP-1 IC50): 0.04 to 0.2 µM
SMILES: CC(C)c1ncc(F)c(C(C)C)c1NC(=O)N=S(N)(=O)c1cc(C(C)(C)O)cs1 (stereo not drawn) [Compound 148, N′-((5-fluoro-2,4-diisopropylpyridin-3-yl)carbamoyl)-4-(2-hydroxypropan-2-yl)thiophene-2-sulfonimidamide]

IC50 [2]: 1 to 5 µM
SMILES: CC(O)c1csc([S@@](N)(=O)=NC(=O)Nc2c3c(nc4c2CC[C@H]4C)CCC3)c1 (stereo partly drawn) [compound 583, (S)-4-(1-hydroxyethyl)-N′-(((R)-3-methyl-1,2,3,5,6,7-hexahydrodicyclopenta[b,e]pyridin-8-yl)carbamoyl)thiophene-2-sulfonimidamide]

IC50 [3]: 1 to 5 µM
SMILES: CC(C)(O)c1cnc(S(N)(=O)=NC(=O)Nc2c3c(nc4c2CCC42CC2)CCC3)s1 (stereo not drawn) [Compound 683, 5-(2-Hydroxypropan-2-yl)-N′-((1′,5′,6′,7′-tetrahydro-2′H-spiro[cyclopropane-1,3′-dicyclopenta[b,e]pyridin]-8′-yl)carbamoyl)thiazole-2-sulfonimidamide]

IC50 [4]: 1 to 5 µM
SMILES: CC(C)(O)c1csc(S(N)(=O)=NC(=O)Nc2c3c(nc4c2CCC4)CCC3)c1 (single isomer, unassigned) [Compound 155b, (S) or (R)-N′-((1,2,3,5,6,7-hexahydrodicyclo-penta[b,e]pyridin-8-yl)carbamoyl)-4-(2-hydroxypropan-2-yl)thiophene-2-sulfonimidamide]

IC50 [1]: 5 to 30 µM
SMILES: CC(C)(O)c1cc(S(N)(=O)=NC(=O)Nc2c3c(nc4c2CCC4(C)C)CCC3)nn1-c1ccc(F)cc1 (single isomer, unassigned) [Compound 705a, (S) or (R)-N′-((3,3-dimethyl-1,2,3,5,6,7-hexahydrodicyclopenta [b,e]pyridin-8-yl)carbamoyl)-1-(4-fluorophenyl)-5-(2-hydroxypropan-2-yl)-1H-pyrazole-3-sulfonimidamide]

IC50 [3]: 0.2 to 1 µM
SMILES: CC(C)n1nc(S(N)(=O)=NC(=O)Nc2c3c(nc4c2CCC4(C)C)CCC3)cc1CO (single isomer, unassigned) [Compound 652a]

IC50 (Table B4, class symbols, read-out: hTHP-1 IC50): 0.2 to 1 µM
SMILES: CCc1c(C(F)(F)F)nc2c(c1NC(=O)N=S(N)(=O)c1nn(CC)cc1F)CCC2 (single isomer, unassigned) [Example 771, (R) or (S)-1-ethyl-N′-((3-ethyl-2-(trifluoromethyl)-6,7-dihydro-5H-cyclopenta[b]pyridin-4-yl)carbamoyl)-4-fluoro-1H-pyrazole-3-sulfonimidamide]
